molecular target: T1, recombinant human MetAP-2 (Homo sapiens, UniProt P50579); assay: Enzymatic activity assay of Methionine aminopeptidase 2 (enzyme coupled assay, Met-Ala-Ser substrate); assay type: biochemical; conditions: recombinant human MetAP-2 (His-Tev-MetAP-2), absorbance at 450 nm, kinetic mode, read-out: MeAP2 IC50
T1 construct: His tag (N); TEV cleavage site (N); made in house
Method: The MetAP-2 activity was determined by an enzyme coupled assay using the tripeptide Met-Ala-Ser (MAS) as substrate and recombinant human MetAP-2 (His-Tev-MetAP-2, prepared in-house). The released methionine is converted by L-amino acid oxidase (AAO) to Met ox and hydrogen peroxide is released. In a second step horse radish peroxidase catalyses the oxidation of the leuko dye dianisidine to dianisidine ox with hydrogen peroxide as co-substrate. The produced dianisidine ox was detected photometrically as increase in absorbance at 450 nm. MetAP-2 activity was determined in a kinetic measurement mode. The release of one molecule methionine corresponds to the production of one molecule dianisidine ox. The MetAP-2 enzymatic activity is directly corresponding to the increase in absorbance per time.

T1 sequence (P50579 whole entry): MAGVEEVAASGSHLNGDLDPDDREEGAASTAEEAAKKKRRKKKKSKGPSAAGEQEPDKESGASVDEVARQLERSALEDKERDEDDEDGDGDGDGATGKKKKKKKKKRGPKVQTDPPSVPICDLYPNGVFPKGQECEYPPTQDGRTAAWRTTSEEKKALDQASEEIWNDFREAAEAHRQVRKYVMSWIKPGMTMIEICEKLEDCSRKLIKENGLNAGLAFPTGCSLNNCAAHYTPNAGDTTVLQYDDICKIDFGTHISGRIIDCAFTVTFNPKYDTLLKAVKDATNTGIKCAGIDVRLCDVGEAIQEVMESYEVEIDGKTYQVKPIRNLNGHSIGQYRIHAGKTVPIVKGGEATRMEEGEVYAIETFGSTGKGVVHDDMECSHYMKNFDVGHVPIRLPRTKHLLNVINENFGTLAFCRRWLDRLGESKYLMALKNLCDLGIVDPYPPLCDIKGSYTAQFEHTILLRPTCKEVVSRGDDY

IC50 [nM] | Structure (SMILES)
< 1000 | O=C(NCc1cc(F)cc(Cl)c1)[C@@]1(O)CCN(c2ccc3c(c2)C2(CC2)S(=O)(=O)N3)C1=O [Compound 20, (S)-N-(3-chloro-5-fluorobenzyl)-1-(2,2-dioxido-1H-spiro[benzo[c]isothiazole-3,1′-cyclopropan]-5-yl)-3-hydroxy-2-oxopyrrolidine-3-carboxamide]
1000 to 10000 | CCP(=O)(CC)c1ccc(N2CC[C@@](O)(C(=O)NCc3cc(F)cc(F)c3)C2=O)cc1 [Compound 3a]
< 1000 | O=C1Nc2ccc(N3CC[C@](O)(C(=O)NCc4cc(F)cc(F)c4)C3=O)cc2C12CC2 [Compound 16, (S)-N-(3,5-difluorobenzyl)-3-hydroxy-2-oxo-1-(2′-oxospiro[cyclopropane-1,3′-indoline]-5′-yl)pyrrolidine-3-carboxamide]
> 10000 | CP(C)(=O)c1ccc(N2CC[C@@](O)(C(=O)NCc3cc(F)cc(F)c3)C2=O)cn1 [Compound 6a]
1000 to 10000 | O=C(NCc1cc(F)cc(Cl)c1)[C@]1(O)CCN(c2ccc(P(=O)(C3CC3)C3CC3)cc2)C1=O [Compound 8a]
< 1000 | C[Si](C)(C)c1ccc(N2CC[C@](O)(C(=O)NCc3cc(F)cc(F)c3)C2=O)cc1 [Compound 11, (S)-N-(3,5-difluorobenzyl)-3-hydroxy-2-oxo-1-(4-(trimethylsilyl)phenyl)pyrrolidine-3-carbo xamide]
1000 to 10000 | O=C1Nc2ccc(N3CC[C@@](O)(C(=O)NCc4cc(F)cc(Cl)c4)C3=O)cc2C12CC2 [Compound 13a]
1000 to 10000 | CP(C)(=O)c1ccc(N2CC[C@@](O)(C(=O)NCc3cc(F)cc(F)c3)C2=O)cc1 [Compound 1a, (R)-N-(3,5-difluorobenzyl)-1-(4-(dimethylphosphoryl)phenyl)-3-hydroxy-2-oxopyrrolidine-3-car boxamide]
< 1000 | O=C(NCc1cc(F)cc(F)c1)[C@@]1(O)CCN(c2ccc(P(=O)(C3CC3)C3CC3)cc2)C1=O [Compound 10, (S)-1-(4-(dicyclopropylphosphoryl)phenyl)-N-(3,5-difluorobenzyl)-3-hydroxy-2-oxopyrrolidine-3-carboxamide]
1000 to 10000 | O=C(NCc1cc(F)cc(F)c1)[C@]1(O)CCN(c2ccc(P(=O)(C3CC3)C3CC3)cc2)C1=O [Compound 10a]
< 1000 | CC(C)P(=O)(c1ccc(N2CC[C@](O)(C(=O)NCc3cc(F)cc(Cl)c3)C2=O)cc1)C(C)C [Compound 7, (S)-N-(3-chloro-5-fluorobenzyl)-1-(4-(diisopropylphosphoryl)phenyl)-3-hydroxy-2-oxopyrr olidine-3-carboxamide]
< 1000 | CP(C)(=O)c1cccc(N2CC[C@](O)(C(=O)NCc3cc(F)cc(F)c3)C2=O)c1 [Compound 2, (S)-N-(3,5-difluorobenzyl)-1-(3-(dimethylphosphoryl)phenyl)-3-hydroxy-2-oxopyrrolidine-3-carboxamide]
< 1000 | O=C(NCc1cc(F)cc(F)c1)[C@@]1(O)CCN(c2ccc3c(c2)C2(CC2)CN3)C1=O [Compound 12, (S)-N-(3,5-difluorobenzyl)-3-hydroxy-2-oxo-1-(spiro[cyclopropane-1,3′-indoline]-5′-yl)pyrr olidine-3-carboxamide]
< 1000 | CP(C)(=O)c1ccc(N2CC[C@](O)(C(=O)NCc3cc(F)cc(F)c3)C2=O)cn1 [Compound 6, (S)-N-(3,5-difluorobenzyl)-1-(6-(dimethylphosphoryl)pyridin-3-yl)-3-hydroxy-2-oxopyrrolidine-3-carboxamide]
< 1000 | O=C(NCc1cc(F)cc(Cl)c1)[C@@]1(O)CCN(c2ccc(P(=O)(C3CCC3)C3CCC3)cc2)C1=O [Compound 5, (S)-N-(3-chloro-5-fluorobenzyl)-1-(4-(dicyclobutylphosphoryl)phenyl)-3-hydroxy-2-oxopyrr olidine-3-carboxamide]
1000 to 10000 | O=C(NCc1cc(F)cc(Cl)c1)[C@]1(O)CCN(c2ccc(P(=O)(C3CCC3)C3CCC3)cc2)C1=O [Compound 5a]
< 1000 | CCP(=O)(CC)c1ccc(N2CC[C@](O)(C(=O)NCc3cc(F)cc(F)c3)C2=O)cc1 [Compound 3, (S)-1-(4-(diethylphosphoryl)phenyl)-N-(3,5-difluorobenzyl)-3-hydroxy-2-oxopyrrolidine-3-c arboxamide]

IC50 [nM] | Structure (SMILES)
< 1000 | O=C(NCc1cc(F)cc(F)c1)[C@@]1(O)CCN(c2ccc3c(c2)C2(CCC2)S(=O)(=O)N3)C1=O [Compound 18, (S)-N-(3,5-difluorobenzyl)-1-(2,2-dioxido-1H-spiro[benzo[c]isothiazole-3,1′-cyclobutan]-5-y 1)-3-hydroxy-2-oxopyrrolidine-3-carboxamide]
< 1000 | NC(=O)c1cc2cc(N3CCC(O)(C(=O)NCc4cc(F)cc(F)c4)C3=O)sc2[nH]1 (stereo not drawn) [Compound 23, 2-(3-(3,5-difluorobenzylcarbamoyl)-3-hydroxy-2-oxopyrrolidin-1-yl)-6H-thieno[2,3-b]pyrro 1e-5-carboxamide]
< 1000 | CP(C)(=O)c1ccc(N2CC[C@](O)(C(=O)NCc3cc(F)cc(F)c3)C2=O)cc1 [Compound 1, (S)-N-(3,5-difluorobenzyl)-1-(4-(dimethylphosphoryl)phenyl)-3-hydroxy-2-oxopyrrolidine-3-arboxamide]
< 1000 | CP(C)(=O)c1ccc(N2CC[C@](O)(C(=O)NCc3cc(F)cc(Cl)c3)C2=O)cc1 [Compound 9, (S)-N-(3-chloro-5-fluorobenzyl)-1-(4-(dimethylphosphoryl)phenyl)-3-hydroxy-2-oxopyrrolidine-3-carboxamide]
< 1000 | O=C(NCc1cc(F)cc(Cl)c1)[C@@]1(O)CCN(c2ccc(P(=O)(C3CC3)C3CC3)cc2)C1=O [Compound 8, (S)-N-(3-chloro-5-fluorobenzyl)-1-(4-(dicyclopropylphosphoryl)phenyl)-3-hydroxy-2-oxopy rrolidine-3-carboxamide]
< 1000 | O=C(NCc1cc(F)cc(Cl)c1)[C@@]1(O)CCN(c2ccc3c(c2)C2(CCC2)S(=O)(=O)N3)C1=O [Compound 19, (S)-N-(3-chloro-5-fluorobenzyl)-1-(2,2-dioxido-1H-spiro[benzo[c]isothiazole-3,1′-cyclobutan]-5-yl)-3-hydroxy-2-oxopyrrolidine-3-carboxamide]
< 1000 | O=C1Nc2ccc(N3CC[C@](O)(C(=O)NCc4cc(F)cc(F)c4)C3=O)cc2C12CCCC2 [Compound 15, (S)-N-(3,5-difluorobenzyl)-3-hydroxy-2-oxo-1-(2′-oxospiro[cyclopentane-1,3′-indoline]-5′-yl)pyrrolidine-3-carboxamide]
< 1000 | O=C1Nc2ccc(N3CC[C@](O)(C(=O)NCc4cc(F)cc(Cl)c4)C3=O)cc2C12CCC2 [Compound 14, (S)-N-(3-chloro-5-fluorobenzyl)-3-hydroxy-2-oxo-1-(2′-oxospiro[cyclobutane-1,3′-indoline]-5′-yl)pyrrolidine-3-carboxamide]
> 10000 | CC(C)P(=O)(c1ccc(N2CC[C@@](O)(C(=O)NCc3cc(F)cc(Cl)c3)C2=O)cc1)C(C)C [Compound 7a]
< 1000 | CP(C)(=O)c1ccc(N2CC[C@@](O)(C(=O)NCc3cc(F)cc(Cl)c3)C2=O)cc1 [Compound 9a]
< 1000 | O=C1Nc2ncc(N3CC[C@](O)(C(=O)NCc4cc(F)cc(Cl)c4)C3=O)cc2C12CC2 [Compound 17, (S)-N-(3-chloro-5-fluorobenzyl)-3-hydroxy-2-oxo-1-(2′-oxo-1′,2′-dihydrospiro[cyclopropane-1,3′-pyrrolo[2,3-b]pyridine]-5′-yl)pyrrolidine-3-carboxamide]
< 1000 | O=C(NCc1cc(F)cc(Cl)c1)C1(O)CCN(c2ccc(P(=O)(C3CCC3)C3CCC3)cc2)C1=O (racemic) [Compound 5-7]
< 1000 | CC(C)P(=O)(c1ccc(N2CC[C@](O)(C(=O)NCc3cc(F)cc(F)c3)C2=O)cc1)C(C)C [Compound 4, (S)-N-(3,5-difluorobenzyl)-1-(4-(diisopropylphosphoryl)phenyl)-3-hydroxy-2-oxopyrrolidine-3-carboxamide]
< 1000 | O=C1Nc2ccc(N3CC[C@](O)(C(=O)NCc4cc(F)cc(Cl)c4)C3=O)cc2C12CC2 [Compound 13, (S)-N-(3-chloro-5-fluorobenzyl)-3-hydroxy-2-oxo-1-(2′-oxospiro[cyclopropane-1,3′-indoline]-5′-yl)pyrrolidine-3-carboxamide]
1000 to 10000 | CP(C)(=O)c1cccc(N2CC[C@@](O)(C(=O)NCc3cc(F)cc(F)c3)C2=O)c1 [Compound 2a]
< 1000 | CC(C)P(=O)(c1ccc(N2CC[C@@](O)(C(=O)NCc3cc(F)cc(F)c3)C2=O)cc1)C(C)C [Compound 4a]
